Experimental data from patent publication US8293781B2, “Indole derivatives having cPLA2 inhibiting activity and applications and production methods of the same” (Daiichi Sankyo Company, Limited, priority 2007, dated 2012).
Counter-ions that a name gives are not always drawn.

Biological target: T1, cPLA2 crudely purified from the cytoplasm fraction of U937 (Homo sapiens, UniProt P47712)
T1 construct: cPLA2 crudely purified from the cytoplasm fraction of U937; endogenous in cells; host or cells: U937 cells (cytoplasm fraction, crude purification)
T1 sequence (P47712 1-749): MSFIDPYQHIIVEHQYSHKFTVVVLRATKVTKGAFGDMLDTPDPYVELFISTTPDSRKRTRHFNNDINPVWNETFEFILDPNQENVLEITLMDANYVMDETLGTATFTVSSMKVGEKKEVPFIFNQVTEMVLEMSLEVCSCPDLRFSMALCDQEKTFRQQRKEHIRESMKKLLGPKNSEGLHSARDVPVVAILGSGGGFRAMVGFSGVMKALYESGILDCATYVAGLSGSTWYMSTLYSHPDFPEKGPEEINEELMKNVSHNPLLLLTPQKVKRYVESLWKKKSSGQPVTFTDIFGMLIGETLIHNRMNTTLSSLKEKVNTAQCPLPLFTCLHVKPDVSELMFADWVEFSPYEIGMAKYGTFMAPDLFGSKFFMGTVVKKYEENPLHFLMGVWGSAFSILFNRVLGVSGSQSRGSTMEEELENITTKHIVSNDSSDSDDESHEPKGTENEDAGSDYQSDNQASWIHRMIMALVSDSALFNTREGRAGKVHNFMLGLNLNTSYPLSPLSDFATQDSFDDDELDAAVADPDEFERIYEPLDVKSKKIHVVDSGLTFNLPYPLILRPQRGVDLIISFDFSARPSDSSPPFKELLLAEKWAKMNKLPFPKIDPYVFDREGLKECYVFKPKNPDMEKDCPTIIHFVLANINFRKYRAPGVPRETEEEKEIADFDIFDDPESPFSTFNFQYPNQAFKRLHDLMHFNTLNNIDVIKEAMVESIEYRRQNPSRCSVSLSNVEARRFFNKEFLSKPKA
Experiment: Measurement of cPLA2 inhibitory activity (release of [14C]-arachidonic acid from phosphatidyl choline liposome)
Format: biochemical
Conditions: not given
Summary of the method: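 The read-out is radioactivity from extracted [14C]-arachidonic acid, freed over 60 min at 37° C from liposomes of 14C-arachidonyl phosphatidylcholine (10 μM PC in the added solution). Buffer was 50 mM HEPES pH 7.5 with Ca2+, DTT, NaCl and BSA. IC50 was derived from inhibition relative to enzyme control minus no-enzyme control.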

SMILES	IC50
O=C(O)/C=C/c1ccc2c(c1)c(C(=O)c1cccc3ccccc13)cn2-c1ccccc1 [Example 50, (2E)-3-[3-(1-naphthoyl)-1-phenyl-1H-indol-5-yl]-2-propenoic acid]	6990 nM
O=C(O)/C=C/c1ccc2c(c1)c(C(=O)c1ccccc1)cn2-c1ccccc1 [Example 3, (2E)-3-(3-benzoyl-1-phenyl-1H-indol-5-yl)-2-propenoic acid]	494 nM

Same assay, conditions: cPLA2 from U937 cytoplasm fraction, [14C]arachidonyl-phosphatidyl choline liposome, 37° C., 60 minutes; read-out: cPLA2 inhibitory activity, 50% inhibiting concentration IC50

SMILES	IC50
O=Cc1cccc(-n2cc(CCc3ccccc3)c3cc(CCC(=O)O)ccc32)c1 [Example 175, 3-[1-(3-formylphenyl)-3-(2-phenylethyl)-1H-indol-5-yl]propanoic acid]	143 nM
CC(C)(C)C(=O)Nc1ccc(-n2cc(CCc3ccccc3)c3cc(CCC(=O)O)ccc32)cc1 [Example 93, 3-[1-{4-[(2,2-dimethylpropanoyl)amino]phenyl}-3-(2-phenylethyl)-1H-indol-5-yl]propanoic acid 2-amino-2-(hydroxymethyl)propane-1,3-diol salt (1:1)]	112 nM
Cc1ccc(-n2cc(CCc3ccccc3)c3cc(CCC(=O)O)ccc32)cc1C [Example 101, 3-[1-(3,4-dimethylphenyl)-3-(2-phenylethyl)-1H-indol-5-yl]propanoic acid 2-amino-2-(hydroxymethyl)propane-1,3-diol salt (1:1)]	96 nM
O=C(O)CCc1ccc2c(c1)c(CCc1ccccc1)cn2-c1cccc([N+](=O)[O-])c1 [Example 165, 3-[1-(3-nitrophenyl)-3-(2-phenylethyl)-1H-indol-5-yl]propanoic acid]	154 nM
O=C(O)CCc1ccc2c(c1)c(CCc1ccccc1)cn2-c1ccc(OC2CCCCO2)cc1 (stereo not drawn) [Example 214, 3-{3-(2-phenylethyl)-1-[4-(tetrahydro-2H-pyran-2-yloxy)phenyl]-1H-indol-5-yl}propanoic acid 2-amino-2-(hydroxymethyl)propane-1,3-diol salt (1:1)]	5 nM
CN(C)C(=O)c1ccc(-n2cc(CCc3ccccc3)c3cc(CCC(=O)O)ccc32)cc1 [Example 310, 3-[1-{4-[(dimethylamino)carbonyl]phenyl}-3-(2-phenylethyl)-1H-indol-5-yl]propanoic acid]	354 nM
O=C(O)CCc1ccc2c(c1)c(CCCc1ccccc1)cn2-c1ccc(OCc2ccccc2)cc1 [Example 339, 3-{1-[4-(benzyloxy)phenyl]-3-(3-phenylpropyl)-1H-indol-5-yl}propanoic acid]	460 nM
O=C(O)CCc1ccc2c(c1)c(CCc1ccccc1)cn2-c1ccc(OCCOCc2ccccc2)cc1 [Example 342, 3-[1-{4-[2-(benzyloxy)ethoxy]phenyl}-3-(2-phenylethyl)-1H-indol-5-yl]propanoic acid]	2 nM
CC(Cc1cn(-c2ccccc2)c2ccc(/C=C/C(=O)O)cc12)c1ccccc1 (stereo not drawn) [Example 33, (2E)-3-[1-phenyl-3-(2-phenylpropyl)-1H-indol-5-yl]-2-propenoic acid]	662 nM
CS(=O)(=O)NC(=O)CCc1ccc2c(c1)c(CCc1ccccc1)cn2-c1ccc(Oc2ccccc2)cc1 [Example 331, N-(methylsulfonyl)-3-[1-(4-phenoxyphenyl)-3-(2-phenylethyl)-1H-indol-5-yl]propanamide]	> 3000 nM
CS(=O)(=O)c1ccc(-n2cc(CCc3ccccc3)c3cc(CCC(=O)O)ccc32)cc1 [Example 326, 3-{1-[4-(methylsulfonyl)phenyl]-3-(2-phenylethyl)-1H-indol-5-yl}propanoic acid]	486 nM
O=C(O)CCc1ccc2c(c1)c(CCc1ccccc1)cn2-c1cccc(OC(F)F)c1 [Example 185, 3-{1-[3-(difluoromethoxy)phenyl]-3-(2-phenylethyl)-1H-indol-5-yl}propanoic acid]	278 nM
O=C(O)CCc1ccc2c(c1)c(CCc1ccccn1)cn2-c1ccc(COc2ccc(F)cc2)cc1 [Example 300, 3-[1-{4-[(4-fluorophenoxy)methyl]phenyl}-3-(2-pyridin-2-ylethyl)-1H-indol-5-yl]propanoic acid hydrochloride]	381 nM
O=C(O)CCc1ccc2c(c1)c(C(=O)C1(c3ccccc3)CC1)cn2-c1ccccc1 [Example 40, 3-{1-phenyl-3-[(1-phenylcyclopropyl)carbonyl]-1H-indol-5-yl}propanoic acid]	2300 nM
COc1ccc(-n2cc(CCc3ccccc3)c3cc(CCC(=O)O)ccc32)cc1 [Example 77, 3-[1-(4-methoxyphenyl)-3-(2-phenylethyl)-1H-indol-5-yl]propanoic acid 2-amino-2-(hydroxymethyl)propane-1,3-diol salt (1:1)]	26 nM
COc1cccc(-n2cc(CCc3ccccc3)c3cc(CCC(=O)O)ccc32)c1 [Example 107, 3-[1-(3-methoxyphenyl)-3-(2-phenylethyl)-1H-indol-5-yl]propanoic acid 2-amino-2-(hydroxymethyl)propane-1,3-diol salt (1:1)]	195 nM

SMILES	IC50
O=C(O)CCc1ccc2c(c1)c(CCc1ccccc1)cn2-c1ccc(OC(F)F)cc1 [Example 189, 3-{1-[4-(difluoromethoxy)phenyl]-3-(2-phenylethyl)-1H-indol-5-yl}propanoic acid]	43 nM
O=C(O)CCc1ccc2c(c1)c(CCc1ccc(F)cc1)cn2-c1ccccc1 [Example 62, 3-{3-[2-(4-fluorophenyl)ethyl]-1-phenyl-1H-indol-5-yl}propanoic acid 2-amino-2-(hydroxymethyl)propane-1,3-diol salt (1:1)]	565 nM
O=C(O)CCc1ccc2c(c1)c(CCc1ccc(Cl)cc1)cn2-c1ccccc1 [Example 58, 3-{3-[2-(4-chlorophenyl)ethyl]-1-phenyl-1H-indol-5-yl}propanoic acid 2-amino-2-(hydroxymethyl)propane-1,3-diol salt (1:1)]	1160 nM
COCC(=O)Nc1ccc(-n2cc(CCc3ccccc3)c3cc(CCC(=O)O)ccc32)cc1 [Example 197, 3-[1-{4-[(methoxyacetyl)amino]phenyl}-3-(2-phenylethyl)-1H-indol-5-yl]propanoic acid]	157 nM
O=C(O)CCc1ccc2c(c1)c(CCc1ccccc1)cn2-c1ccc(OCCN2CCCC2)cc1 [Example 223, 3-{3-(2-phenylethyl)-1-[4-(2-pyrrolidin-1-ylethoxy)phenyl]-1H-indol-5-yl}propanoic acid hydrochloride]	57 nM
O=C(O)CCc1ccc2c(c1)c(CCc1ccccc1)cn2-c1ccccc1[N+](=O)[O-] [Example 149, 3-[1-(2-nitrophenyl)-3-(2-phenylethyl)-1H-indol-5-yl]propanoic acid]	278 nM
O=C(O)CCc1ccc2c(c1)c(CCc1ccccc1)cn2-c1ccc(OCCCc2cccnc2)cc1 [Example 257, 3-{3-(2-phenylethyl)-1-[4-(3-pyridin-3-ylpropoxy)phenyl]-1H-indol-5-yl}propanoic acid]	7 nM
Nc1cccc(-n2cc(CCc3ccccc3)c3cc(CCC(=O)O)ccc32)c1 [Example 167, 3-[1-(3-aminophenyl)-3-(2-phenylethyl)-1H-indol-5-yl]propanoic acid]	49 nM
CC(C)Oc1ccc(-n2cc(CCc3ccccc3)c3cc(CCC(=O)O)ccc32)cc1 [Example 121, 3-[1-(4-isopropoxyphenyl)-3-(2-phenylethyl)-1H-indol-5-yl]propanoic acid]	7 nM
CCOc1cccc(-n2cc(CCc3ccccc3)c3cc(CCC(=O)O)ccc32)c1 [Example 159, 3-[1-(3-ethoxyphenyl)-3-(2-phenylethyl)-1H-indol-5-yl]propanoic acid]	515 nM
O=C(O)CCc1ccc2c(c1)c(Cc1ccccc1)cn2-c1ccccc1 [Example 8, 3-(3-benzyl-1-phenyl-1H-indol-5-yl)propanoic acid]	182 nM
CC(C)Oc1cccc(-n2cc(CCc3ccccc3)c3cc(CCC(=O)O)ccc32)c1 [Example 163, 3-[1-(3-isopropoxyphenyl)-3-(2-phenylethyl)-1H-indol-5-yl]propanoic acid]	1750 nM
O=C(O)CCc1ccc2c(c1)c(CCc1ccccc1)cn2-c1ccc(OCCCc2cccnc2)cc1 [Example 258, 3-{3-(2-phenylethyl)-1-[4-(3-pyridin-3-ylpropoxy)phenyl]-1H-indol-5-yl}propanoic acid hydrochloride]	2 nM
O=C(CCc1ccc2c(c1)c(CCc1ccccc1)cn2-c1ccc(O)cc1)NO [Example 284, N-hydroxy-3-[1-(4-hydroxyphenyl)-3-(2-phenylethyl)-1H-indol-5-yl]propanamide]	> 3000 nM
O=C(O)CCc1ccc2c(c1)c(CCc1ccccc1)cn2-c1ccc(COc2ccc(F)cc2)cc1 [Example 291, 3-[1-{4-[(4-fluorophenoxy)methyl]phenyl}-3-(2-phenylethyl)-1H-indol-5-yl]propanoic acid 2-amino-2-(hydroxymethyl)propane-1,3-diol salt (1:1)]	83 nM
